On the set-up of the data set: species or system male Sprague Dawley rats. The following applies: rat, in vivo, iv. On the procedure: The purpose of this example was to assess the pharmacokinetics, distribution, and excretion of ^14C-BCC03-5RMP (SEQ ID NO: 23) following a single intravenous administration to male rats. Pharmacokinetic, excretion, and distribution profiles of ^14C-BCC03-5RMP-derived radioactivity were examined in male Sprague Dawley rats following a single intravenous administration of ^14C-BCC03-5RMP (20 mg/kg; 125 μCi/kg). ^14C-BCC03-5RMP was formulated in 5% (v:v) dextrose in water, pH 5.5 and was administered at a dose volume of 5 mL/kg. For assessment of pharmacokinetics of total radioactivity (Group 1), blood was collected at 0.25, 0.5, 1, 2, 4, 8, 24, 48, and 72 hours postdose. For assessment of excretion profiles, urine was collected from 0-8 and 8-24 hours postdose, and at 24-hour intervals through 168 hours postdose. Feces was collected at 24-hour intervals through 168 hours postdose. For assessment of distribution profiles, one animal/time point was sacrificed at 0.25, 1, 4, 24, and 72 hours postdose, and the carcasses were prepared for quantitative whole-body autoradiography (QWBA). Concentrations of radioactivity in whole blood, plasma, urine, feces (after oxidation), cage rinse, cage wash, and carcass were determined by liquid scintillation counting (LSC). Tissue concentrations were calculated by interpolation from each standard curve using MCID™ analysis software (InterFocus Imaging Ltd Corp., UK). Pharmacokinetic parameters for total radioactivity in blood and plasma were calculated using WinNonlin Professional Edition (version 5.2, Pharsight Corporation, St. Louis, Mo.).

Square brackets hold non-standard residues; d marks the D form. Peptide text beside a SMILES is read from it. AEEA = NCCOCCOCC(=O)O

For the molecule `CC[C@H](C)[C@H](NC(=O)[C@H](CC(C)C)NC(=O)[C@H](C)NC(=O)CNC(=O)CNC(=O)[C@H](CS)NC(=O)[C@H](Cc1ccccc1)NC(=O)[C@H](Cc1c[nH]cn1)NC(=O)[C@H](CCCNC(=N)N)NC(=O)CNC(=O)[C@H](CCC(N)=O)NC(=O)[C@H](CC(N)=O)NC(=O)[C@H](CCCNC(=N)N)NC(=O)[C@H](CCCNC(=N)N)NC(=O)[C@H](CCCNC(=N)N)NC(=O)[C@H](CCCNC(=N)N)NC(=O)COCCOCCNC(=O)COCCOCCN)C(=O)N[C@@H](Cc1c[nH]cn1)C(=O)N[C@@H](C)C(=O)N[C@@H](CCCNC(=N)N)C(=O)N[C@@H](Cc1ccccc1)C(=O)N[C@H](C(=O)N[C@@H](CCSC)C(=O)N[C@H](C(=O)N[C@@H](C)C(=O)N[C@@H](C)C(=O)N[C@@H](CO)C(=O)N[C@@H](CO)C(=O)N[C@@H](Cc1ccccc1)C(=O)N[C@@H](CCC(N)=O)C(=O)N[C@@H](CCCNC(=N)N)C(=O)O)[C@@H](C)O)C(C)C` [^14C-BCC03-5RMP] (H-[AEEA][AEEA]RRRRNQGRHFCGGALIHARFVMTAASSFQR-OH; N-terminus assumed), the “administered radioactivity eliminated within the first 48 hours postdose” value is reported as “approximately 55%”. Where the note is “20 mg/kg”, the “Clearance of radioactivity in plasma compared to blood” value is recorded as “approximately 2 fold”, the “exposure (AUC0-∞) in blood compared to plasma” value is “approximately 2 fold” and the “volume of distribution of total radioactivity in blood compared to plasma” value is reported as “approximately 1.6 fold”.

(Values after patent US9862748B2, “Peptide compounds and methods of production and use thereof” (priority 2012, dated 2018).)
